The compounds below were run against recombinant RORγ Ligand Binding Domain (LBD) protein (Homo sapiens (Human), UniProt P51449) (assay: Radio-Ligand RORγ Binding Assay (Assay 1)). Details: competition with 25-hydroxy [26,27-3H]-cholesterol, SPA; Table 9; read-out: RORγ Binding Ki Range*.
Description: Radio-Ligand RORγ Binding Assay (Assay 1)
Compounds of the present invention were tested for ability to bind to RORγ in a cell-free competition assay with commercially available radio-ligand (RL), 25-hydroxy [26,27-^3H]— cholesterol (PerkinElmer, Cat. # NET674250UC), for a ligand binding site on a recombinant RORγ Ligand Binding Domain (LBD) protein expressed as a 6×His-Glutathione-S-Transferase (GST) fusion (“6×His” disclosed as SEQ ID NO: 2). The assay was performed in 96-well SPA plates (PerkinElmer, Cat. #1450-401) in 50 mM HEPES buffer, pH 7.4, containing 150 mM NaCl, 5 mM MgCl2, 10% (v/v) glycerol, 2 mM CHAPS, 0.5 mM β-octylglucopyranoside and 5 mM DTT. Tested compounds were dissolved in DMSO, and semi-log (3.162×) serial dilutions of the compounds were prepared in the same solvent. Two μL of the DMSO solutions were mixed with 28 μL of 8.6 nM 25-hydroxy [26,27-^3H]— cholesterol and 50 μL of 24 nM RORγ LBD. The plate was shaken at 700 rpm for 20 min and incubated for 10 min at rt, after which 40 μL of poly-Lys YSi SPA beads (PerkinElmer, Cat. # RPNQ0010) were added to achieve 50 μg of the beads per well. The plate was incubated on an orbital shaker for 20 min and then for 10 min without agitation at rt. SPA signal for tritium beta radiation was registered on PerkinElmer Microbeta plate reader. Percent inhibition values were calculated based on the high signal obtained with DMSO control and the low signal observed with 10 μM standard RORγ inverse agonist T0901317 (SigmaAldrich, Cat. # T2320). The percent inhibition vs. concentration data were fit into a four-parameter model, and […] values were calculated from the fit as the concentrations corresponding to the inflection points on the dose-response curves. Inhibitory constants (Ki) were calculated using the following equation, where [RL] is the concentration in the assay and KD is a dissociation constant of 25-hydroxy [26,27-^3H]-cholesterol: […]

Sequence of recombinant RORγ Ligand Binding Domain (LBD) protein (P51449 269-508): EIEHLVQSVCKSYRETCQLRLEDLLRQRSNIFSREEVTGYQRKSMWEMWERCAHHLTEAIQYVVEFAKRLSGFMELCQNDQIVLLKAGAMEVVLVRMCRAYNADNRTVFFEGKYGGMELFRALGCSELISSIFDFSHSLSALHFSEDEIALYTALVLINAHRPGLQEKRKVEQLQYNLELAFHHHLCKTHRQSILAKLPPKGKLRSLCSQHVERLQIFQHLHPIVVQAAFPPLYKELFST

Row | Compound | Ki [µM]
1 | Cc1nnc(-c2ccc(CC(=O)Nc3nc4c(s3)CN(Cc3ccc(Cl)cc3)[C@H]4C(C)C)cc2)o1 | 0.1 to 1
2 | CCS(=O)(=O)c1ccc(CC(=O)Nc2nc3c(s2)CN(c2ncc(-c4ccc(=O)n(C)c4)cn2)[C@H]3C(C)C)cc1 | > 1
3 | CCS(=O)(=O)c1ccc(CC(=O)Nc2nc3c(s2)CN(CC2CCNC(=O)C2)[C@H]3C(C)C)cc1 (some centres unmarked) | 0.1 to 1
4 | CCS(=O)(=O)c1ccc(CNC(=O)c2nc3c(s2)CN(Cc2ccc(-c4nnn[nH]4)cc2)[C@H]3C(C)C)cc1 | 0.1 to 1
5 | CCS(=O)(=O)c1ccc(CNC(=O)c2nc3c(s2)CN(Cc2ccn(C(F)F)c(=O)c2)[C@H]3C(C)C)cc1 | 0.1 to 1
6 | CC(C)[C@H]1c2nc(NC(=O)Cc3ccc(S(C)(=O)=O)cc3)sc2CN1Cc1ccn(C2CC2)c(=O)c1 | 0.1 to 1
7 | CCS(=O)(=O)c1ccc(CC(=O)Nc2nc3c(s2)CN(Cc2ccc(C(F)(F)F)cc2)[C@@]3(C)C(C)C)cc1 | 0.1 to 1
8 | CCS(=O)(=O)c1ccc(CC(=O)Nc2nc3c(s2)CN(C[C@H]2CC[C@H](C(=O)O)CC2)[C@H]3C(C)C)cc1 | 0.1 to 1
9 | CC(C)[C@H]1c2nc(NC(=O)Cc3ccc(S(C)(=O)=O)cc3)sc2CN1Cc1ccc(=O)n(C(F)F)n1 | > 1
10 | Cc1ccc(CN2Cc3sc(NC(=O)Cc4ccc(S(C)(=O)=O)cc4)nc3[C@@H]2C(C)C)nn1 | 0.1 to 1
11 | CCS(=O)(=O)c1ccc(CC(=O)Nc2nc3c(s2)CN(c2ncc(CO)c(C(F)(F)F)n2)[C@H]3C(C)C)cc1 | 0.1 to 1
12 | CCS(=O)(=O)c1ccc(CC(=O)Nc2nc3c(s2)CN(Cc2cc[n+]([O-])cc2)[C@H]3C(C)C)cc1 | 0.1 to 1
13 | COc1cc(CN2Cc3sc(NC(=O)Cc4ccc(C#N)cc4)nc3[C@@H]2C(C)C)ccc1C#N | < 0.1
14 | CC(C)[C@H]1c2nc(NC(=O)Cc3ccc(S(C)(=O)=O)cc3F)sc2CN1Cc1cnc(C(F)(F)F)nc1 | 0.1 to 1
15 | CCS(=O)(=O)c1cnc(CC(=O)Nc2nc3c(s2)CN(Cc2ccc(C(F)(F)F)cc2)[C@@H]3C(C)C)nc1 | > 1
16 | CCS(=O)(=O)c1cnc(CC(=O)Nc2nc3c(s2)CN(Cc2ccc(C#N)cc2)[C@@H]3C(C)C)nc1 | > 1
17 | CCS(=O)(=O)c1ccc(CC(=O)Nc2nc3c(s2)CN(Cc2cnc(N)nc2)[C@H]3C(C)C)cc1 | 0.1 to 1
18 | CC[C@H]1c2nc(NC(=O)Cc3ccc(C(=O)OC)cc3)sc2CN1Cc1ccc(Cl)cc1 | 0.1 to 1
19 | CC(C)[C@H]1c2nc(C(=O)NCc3ccc(S(C)(=O)=O)cc3)sc2CN1Cc1ccn(C)c(=O)c1 | > 1
20 | CC(C)[C@H]1c2nc(NC(=O)CC3CCS(=O)(=O)CC3)sc2CN1Cc1ccc(Cl)cc1 | 0.1 to 1

Row | Compound | Ki [µM]
21 | CCS(=O)(=O)c1ccc(CNC(=O)c2nc3c(s2)CN(CC2CNCCO2)[C@H]3C(C)C)cc1 (some centres unmarked) | > 1
22 | CC(C)[C@H]1c2nc(C(=O)NCc3ccc(S(C)(=O)=O)cc3)sc2CN1Cc1ccc2nn[nH]c2c1 | 0.1 to 1
23 | Cc1ncc(CN2Cc3sc(NC(=O)Cc4ccc(S(C)(=O)=O)cc4)nc3[C@@H]2C(C)C)cn1 | 0.1 to 1
24 | CC(C)[C@H]1c2nc(C(=O)NCc3ccc(S(C)(=O)=O)cc3)sc2CN1Cc1ncc(Cl)cn1 | 0.1 to 1
25 | CCOC(=O)c1cnc(N2Cc3sc(NC(=O)Cc4ccc(S(=O)(=O)CC)cc4)nc3C2(C)C)nc1C(F)(F)F | 0.1 to 1
26 | CC(C)[C@H]1c2nc(C(=O)NCc3ccc(S(C)(=O)=O)cc3)sc2CN1Cc1cnc(C(F)(F)F)nc1 | 0.1 to 1
27 | CCS(=O)(=O)c1ccc(CC(=O)Nc2nc3c(s2)CN(Cc2ccc(S(C)(=O)=O)cc2)C3(C)C)cc1 | > 1
28 | CC1(C)c2nc(NC(=O)Cc3ccc(S(C)(=O)=O)cc3)sc2CN1c1ncc(C(F)(F)F)cn1 | 0.1 to 1
29 | CCS(=O)(=O)c1ccc(CNC(=O)c2nc3c(s2)CN(c2ncc(CO)c(C(F)(F)F)n2)[C@H]3C(C)C)cc1 | > 1
30 | CCS(=O)(=O)c1ccc(CNC(=O)c2nc3c(s2)CN(c2ncc(C(F)(F)F)cn2)[C@H]3C(C)C)cc1 | > 1
31 | CCOC(=O)c1cnc(N2Cc3sc(C(=O)NCc4ccc(S(=O)(=O)CC)cc4)nc3[C@@H]2C(C)C)nc1C(F)(F)F | > 1
32 | CCS(=O)(=O)c1ccc(CNC(=O)c2nc3c(s2)CN(c2nccc(C(F)(F)F)n2)[C@H]3C(C)C)cc1 | 0.1 to 1
33 | CCS(=O)(=O)c1ccc(CC(=O)Nc2nc3c(s2)CN(c2ncc(C(F)(F)F)cn2)C3(C)C)cc1 | 0.1 to 1
34 | CC(C)[C@H]1c2nc(NC(=O)Cc3ccc(S(C)(=O)=O)cc3)sc2CN1Cc1ncc(Cl)cn1 | 0.1 to 1
35 | CC(C)[C@H]1c2nc(C(=O)NCc3ccc(S(C)(=O)=O)cc3)sc2CN1Cc1ccc(C#N)cn1 | 0.1 to 1
36 | CC(C)[C@H]1c2nc(NC(=O)Cc3ccc(S(C)(=O)=O)cc3)sc2CN1Cc1ncc(Cl)cc1F | 0.1 to 1
37 | CCOC(=O)c1cnc(N2Cc3sc(NC(=O)Cc4ccc(S(C)(=O)=O)cc4)nc3[C@@H]2C(C)C)nc1C(F)(F)F | 0.1 to 1
38 | CC(C)[C@H]1c2nc(NC(=O)Cc3ccc(S(C)(=O)=O)cc3)sc2CN1c1nc(Cl)ncc1C#N | 0.1 to 1
39 | CC(C)[C@H]1c2nc(NC(=O)Cc3ccc(S(C)(=O)=O)cc3)sc2CN1c1ncc(C#N)c(Cl)n1 | 0.1 to 1
40 | COC(=O)c1cnc(N2Cc3sc(NC(=O)Cc4ccc(S(C)(=O)=O)cc4)nc3[C@@H]2C(C)C)nc1 | > 1

Row | Compound | Ki [µM]
41 | CC(C)[C@H]1c2nc(NC(=O)Cc3ccc(F)cc3F)sc2CN1Cc1ccc(Cl)cc1 | 0.1 to 1
42 | CC[C@@H]1c2nc(NC(=O)Cc3ccc(S(C)(=O)=O)cc3)sc2CN1Cc1ccc(OC(F)(F)F)nc1 | 0.1 to 1
43 | CC[C@@H]1c2nc(NC(=O)Cc3ccc(S(=O)(=O)CC)cc3)sc2CN1Cc1ccc(F)cn1 | 0.1 to 1
44 | CC[C@@H]1c2nc(NC(=O)Cc3ccc(S(C)(=O)=O)cc3)sc2CN1Cc1ccc(OC(F)(F)F)cc1F | 0.1 to 1
45 | CC(C)[C@@H]1c2nc(NC(=O)Cc3ccc(S(C)(=O)=O)cc3)sc2CN1Cc1ccc(Br)cc1 | 0.1 to 1
46 | CCS(=O)(=O)c1ccc(CC(=O)Nc2nc3c(s2)CN([C@@H](C)Cc2ccccc2)[C@@H]3C(C)C)cc1 | 0.1 to 1
47 | CCS(=O)(=O)c1ccc(CC(=O)Nc2nc3c(s2)CN(Cc2nccc(C(F)(F)F)n2)[C@@H]3C(C)C)cc1 | 0.1 to 1
48 | CCS(=O)(=O)c1ccc(CC(=O)Nc2nc3c(s2)CN(Cc2ccc(C#N)cn2)[C@@H]3C(C)C)cc1 | 0.1 to 1
49 | COC(=O)c1coc(CN2Cc3sc(NC(=O)Cc4ccc(S(C)(=O)=O)cc4)nc3[C@H]2C(C)C)n1 | > 1
50 | CC(C)[C@@H]1c2nc(NC(=O)Cc3ccc(S(C)(=O)=O)cc3)sc2CN1C(C)c1ccc(C#N)cc1 (some centres unmarked) | 0.1 to 1
51 | Cc1ccc(CN2Cc3sc(NC(=O)Cc4ccc(S(C)(=O)=O)cc4)nc3[C@H]2C(C)C)cc1 | 0.1 to 1
52 | CCS(=O)(=O)c1ccc(CC(=O)Nc2nc3c(s2)CN(C(=O)Cc2ccccc2)[C@@H]3C(C)C)cc1 | 0.1 to 1
53 | CC(C)[C@@H]1c2nc(NC(=O)Cc3ccc(S(C)(=O)=O)cc3)sc2CN1Cc1ccc(C#N)cc1 | 0.1 to 1
54 | CCS(=O)(=O)c1ccc(CC(=O)Nc2nc3c(s2)CN(Cc2ccc(C(F)(F)F)nc2)[C@@H]3C(C)C)cc1 | 0.1 to 1
55 | CCS(=O)(=O)c1ccc(CC(=O)Nc2nc3c(s2)CN(CC2CCOCC2)[C@@H]3C(C)C)cc1 | 0.1 to 1
56 | CCS(=O)(=O)c1ccc(CC(=O)Nc2nc3c(s2)CN(Cc2ccc(S(C)(=O)=O)cc2)[C@@H]3C(C)C)cc1 | 0.1 to 1
57 | Cc1cc(C(F)(F)F)nc(N2Cc3sc(-c4ccc(C(F)(F)F)nc4)nc3[C@H]2C(C)C)n1 | > 1
58 | Cc1cc(C(F)(F)F)nc(N2Cc3sc(Cc4ccc(-c5nn[nH]n5)cc4C)nc3[C@H]2C(C)C)n1 | 0.1 to 1
59 | Cc1cc(C(F)(F)F)nc(N2Cc3sc(Cc4ccc(C#N)cc4C)nc3[C@H]2C(C)C)n1 | > 1
